# Experimental data: ChEMBL document CHEMBL1141947, “Inhibitors of the serotonin transporter protein (SERT): the design and synthesis of biotinylated derivatives of 3-(1,2,3,6-tetrahydro-pyridin-4-yl)-1H-indoles. High-affinity serotonergic ligands for conjugation with quantum dots” (Bioorg Med Chem Lett, 2005)
# Key:
# [1] = target: T1, Sodium-dependent serotonin transporter (Homo sapiens, UniProt P31645); assay: Inhibitory activity against human SERT transfected in HEK293 cells; format: cell-based
# [2] = target: T1, Sodium-dependent serotonin transporter; assay: Inhibitory activity of compound bound to streptavidin-conjugated quantum dots against human SERT transfected in HEK293 cells; format: cell-based
# T1 sequence (P31645 whole entry): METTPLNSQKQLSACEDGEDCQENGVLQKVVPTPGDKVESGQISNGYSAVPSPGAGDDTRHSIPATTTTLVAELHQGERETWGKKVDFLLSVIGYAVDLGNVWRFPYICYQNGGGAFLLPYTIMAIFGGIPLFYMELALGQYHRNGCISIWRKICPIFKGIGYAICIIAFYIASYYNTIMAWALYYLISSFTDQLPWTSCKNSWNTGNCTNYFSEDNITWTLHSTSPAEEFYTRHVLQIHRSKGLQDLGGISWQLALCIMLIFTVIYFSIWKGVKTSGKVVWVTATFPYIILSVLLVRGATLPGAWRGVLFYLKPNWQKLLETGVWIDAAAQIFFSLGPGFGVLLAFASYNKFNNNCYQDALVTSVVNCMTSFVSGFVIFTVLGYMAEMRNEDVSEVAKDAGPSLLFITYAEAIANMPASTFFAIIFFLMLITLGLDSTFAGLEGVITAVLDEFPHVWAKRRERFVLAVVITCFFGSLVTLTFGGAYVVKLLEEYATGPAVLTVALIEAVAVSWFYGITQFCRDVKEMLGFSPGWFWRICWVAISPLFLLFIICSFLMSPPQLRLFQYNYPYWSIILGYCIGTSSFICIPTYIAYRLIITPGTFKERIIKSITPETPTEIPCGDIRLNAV
Structure (SMILES),IC50 [1] [µM],IC50 [2] [µM]
O=C(CCCCC1SCC2NC(=O)NC21)NCCN1CC=C(c2c[nH]c3ccccc23)CC1 (centres undefined),0.002,0.03
NCCc1c[nH]c2ccc(OCCOCCOCCS)cc12,115,99
